Organism: Rattus norvegicus
Experiment: DrugMatrix - Regimen: Daily Repeat
Assay type: toxicity, organism-based, Sprague-Dawley
Design: regimen Daily Repeat, gender Male, age 6-8 weeks
Details: in vivo, po, route oral GAVAGE, vehicle .5 % CMC; for ABSOLUTE BASOPHIL / ABSOLUTE EOSINOPHIL / ABSOLUTE LYMPHOCYTE / ABSOLUTE MONOCYTE / ABSOLUTE SEGMENTED NEUTROPHIL / BASOPHIL / EOSINOPHIL / ERYTHROCYTE COUNT / HEMATOCRIT / HEMOGLOBIN / LEUKOCYTE COUNT / LYMPHOCYTE / MEAN CORPUSCULAR HEMOGLOBIN / MEAN CORPUSCULAR HEMOGLOBIN CONCENTRATION / MEAN CORPUSCULAR VOLUME / MONOCYTE / NEUTROPHIL / NUCLEATED RED BLOOD CELLS / PLATELET COUNT: tissue Blood; for ALANINE AMINOTRANSFERASE / ALBUMIN / ALKALINE PHOSPHATASE / ASPARTATE AMINOTRANSFERASE / BLOOD UREA NITROGEN / CARBON DIOXIDE / CHLORIDE / CHOLESTEROL / CREATINE PHOSPHOKINASE / CREATININE / GLUCOSE / LACTATE DEHYDROGENASE / LIPASE / PHOSPHORUS / POTASSIUM / SODIUM / TOTAL BILIRUBIN / TOTAL PROTEIN / URIC ACID: tissue Plasma
[1] = 0.0001 mg/kg, 72 h, dose level Low, time 3 day
[2] = 0.0001 mg/kg, 120 h, dose level Low, time 5 day
[3] = […], 72 h, dose 0.043 mg/Kg, dose level High, time 3 day
[4] = […], 120 h, dose 0.043 mg/Kg, dose level High, time 5 day

C=C1/C(=C\C=C2/CCC[C@]3(C)[C@@H]([C@H](C)CCCC(C)C)CC[C@@H]23)C[C@@H](O)C[C@@H]1O [ALFACALCIDOL]
ABSOLUTE BASOPHIL [1]: 0 CELLS/uL | ABSOLUTE EOSINOPHIL [1]: 140 CELLS/uL | ABSOLUTE LYMPHOCYTE [1]: 12178.67 CELLS/uL | ABSOLUTE MONOCYTE [1]: 352 CELLS/uL | ABSOLUTE SEGMENTED NEUTROPHIL [1]: 1262.67 CELLS/uL | BASOPHIL [1]: 0% | EOSINOPHIL [1]: 1% | ERYTHROCYTE COUNT [1]: 6.05 x10E6/uL | HEMATOCRIT [1]: 38.07% | HEMOGLOBIN [1]: 14.23 G/DL | LEUKOCYTE COUNT [1]: 13.93 x10E3/uL | LYMPHOCYTE [1]: 87.33% | MEAN CORPUSCULAR HEMOGLOBIN [1]: 23.6 pg | MEAN CORPUSCULAR HEMOGLOBIN CONCENTRATION [1]: 37.4 G/DL | MEAN CORPUSCULAR VOLUME [1]: 63.03 fL | MONOCYTE [1]: 2.67% | NEUTROPHIL [1]: 9% | NUCLEATED RED BLOOD CELLS [1]: 0.33 /100WBC | PLATELET COUNT [1]: 1202.33 x10E3/uL | ALANINE AMINOTRANSFERASE [1]: 48.33 u/L | ALBUMIN [1]: 4.17 G/DL | ALKALINE PHOSPHATASE [1]: 299.33 u/L | ASPARTATE AMINOTRANSFERASE [1]: 81 u/L | BLOOD UREA NITROGEN [1]: 17 mg/dL | CARBON DIOXIDE [1]: 24.67 mmol/L | CHLORIDE [1]: 103.5 MEQ/L | CHOLESTEROL [1]: 65 mg/dL | CREATINE PHOSPHOKINASE [1]: 332 u/L | CREATININE [1]: 0.2 mg/dL | GLUCOSE [1]: 178.67 mg/dL | LACTATE DEHYDROGENASE [1]: 142.33 u/L | LIPASE [1]: 9.33 u/L | PHOSPHORUS [1]: 12.17 mg/dL | POTASSIUM [1]: 6.03 MEQ/L | SODIUM [1]: 146.55 MEQ/L | TOTAL BILIRUBIN [1]: 0.23 mg/dL | TOTAL PROTEIN [1]: 5.83 G/DL | URIC ACID [1]: 1.77 mg/dL | ABSOLUTE BASOPHIL [2]: 0 CELLS/uL | ABSOLUTE EOSINOPHIL [2]: 164 CELLS/uL | ABSOLUTE LYMPHOCYTE [2]: 10288.67 CELLS/uL | ABSOLUTE MONOCYTE [2]: 193 CELLS/uL | ABSOLUTE SEGMENTED NEUTROPHIL [2]: 1121 CELLS/uL | BASOPHIL [2]: 0% | EOSINOPHIL [2]: 1.33% | ERYTHROCYTE COUNT [2]: 5.95 x10E6/uL | HEMATOCRIT [2]: 36.97% | HEMOGLOBIN [2]: 13.63 G/DL | LEUKOCYTE COUNT [2]: 11.77 x10E3/uL | LYMPHOCYTE [2]: 87.33% | MEAN CORPUSCULAR HEMOGLOBIN [2]: 22.9 pg | MEAN CORPUSCULAR HEMOGLOBIN CONCENTRATION [2]: 36.9 G/DL | MEAN CORPUSCULAR VOLUME [2]: 62.07 fL | MONOCYTE [2]: 1.67% | NEUTROPHIL [2]: 9.67% | NUCLEATED RED BLOOD CELLS [2]: 0 /100WBC | PLATELET COUNT [2]: 1179 x10E3/uL | ALANINE AMINOTRANSFERASE [2]: 40.33 u/L | ALBUMIN [2]: 4.23 G/DL | ALKALINE PHOSPHATASE [2]: 369.33 u/L | ASPARTATE AMINOTRANSFERASE [2]: 94.33 u/L | BLOOD UREA NITROGEN [2]: 21 mg/dL | CARBON DIOXIDE [2]: 26.67 mmol/L | CHLORIDE [2]: 105 MEQ/L | CHOLESTEROL [2]: 57.33 mg/dL | CREATINE PHOSPHOKINASE [2]: 399 u/L | CREATININE [2]: 0.21 mg/dL | GLUCOSE [2]: 158.33 mg/dL | LACTATE DEHYDROGENASE [2]: 716.33 u/L | LIPASE [2]: 8.33 u/L | PHOSPHORUS [2]: 11.8 mg/dL | POTASSIUM [2]: 5.72 MEQ/L | SODIUM [2]: 145.1 MEQ/L | TOTAL BILIRUBIN [2]: 0.13 mg/dL | TOTAL PROTEIN [2]: 5.9 G/DL | URIC ACID [2]: 1.3 mg/dL | ABSOLUTE BASOPHIL [3]: 0 CELLS/uL | ABSOLUTE EOSINOPHIL [3]: 333 CELLS/uL | ABSOLUTE LYMPHOCYTE [3]: 10082 CELLS/uL | ABSOLUTE MONOCYTE [3]: 537.33 CELLS/uL | ABSOLUTE SEGMENTED NEUTROPHIL [3]: 2481 CELLS/uL | BASOPHIL [3]: 0% | EOSINOPHIL [3]: 2.33% | ERYTHROCYTE COUNT [3]: 6 x10E6/uL | HEMATOCRIT [3]: 36.53% | HEMOGLOBIN [3]: 13.9 G/DL | LEUKOCYTE COUNT [3]: 13.43 x10E3/uL | LYMPHOCYTE [3]: 74% | MEAN CORPUSCULAR HEMOGLOBIN [3]: 23.2 pg | MEAN CORPUSCULAR HEMOGLOBIN CONCENTRATION [3]: 38.07 G/DL | MEAN CORPUSCULAR VOLUME [3]: 60.97 fL | MONOCYTE [3]: 4% | NEUTROPHIL [3]: 19.67% | NUCLEATED RED BLOOD CELLS [3]: 0.33 /100WBC | PLATELET COUNT [3]: 1182 x10E3/uL | ALANINE AMINOTRANSFERASE [3]: 54.33 u/L | ALBUMIN [3]: 3.93 G/DL | ALKALINE PHOSPHATASE [3]: 234.67 u/L | ASPARTATE AMINOTRANSFERASE [3]: 99 u/L | BLOOD UREA NITROGEN [3]: 27.67 mg/dL | CARBON DIOXIDE [3]: 26.33 mmol/L | CHLORIDE [3]: 99.67 MEQ/L | CHOLESTEROL [3]: 75.33 mg/dL | CREATINE PHOSPHOKINASE [3]: 379.67 u/L | CREATININE [3]: 0.33 mg/dL | GLUCOSE [3]: 174.33 mg/dL | LACTATE DEHYDROGENASE [3]: 344 u/L | LIPASE [3]: 8.33 u/L | PHOSPHORUS [3]: 12.9 mg/dL | POTASSIUM [3]: 5.6 MEQ/L | SODIUM [3]: 142.27 MEQ/L | TOTAL BILIRUBIN [3]: 0.2 mg/dL | TOTAL PROTEIN [3]: 5.87 G/DL | URIC ACID [3]: 1.57 mg/dL | ABSOLUTE BASOPHIL [4]: 0 CELLS/uL | ABSOLUTE EOSINOPHIL [4]: 110 CELLS/uL | ABSOLUTE LYMPHOCYTE [4]: 15770.33 CELLS/uL | ABSOLUTE MONOCYTE [4]: 383.67 CELLS/uL | ABSOLUTE SEGMENTED NEUTROPHIL [4]: 2702.67 CELLS/uL | BASOPHIL [4]: 0% | EOSINOPHIL [4]: 1% | ERYTHROCYTE COUNT [4]: 6.37 x10E6/uL | HEMATOCRIT [4]: 38.77% | HEMOGLOBIN [4]: 14.5 G/DL | LEUKOCYTE COUNT [4]: 18.97 x10E3/uL | LYMPHOCYTE [4]: 83.33% | MEAN CORPUSCULAR HEMOGLOBIN [4]: 22.77 pg | MEAN CORPUSCULAR HEMOGLOBIN CONCENTRATION [4]: 37.43 G/DL | MEAN CORPUSCULAR VOLUME [4]: 60.83 fL | MONOCYTE [4]: 2% | NEUTROPHIL [4]: 13.67% | NUCLEATED RED BLOOD CELLS [4]: 0 /100WBC | PLATELET COUNT [4]: 1065.33 x10E3/uL | ALANINE AMINOTRANSFERASE [4]: 53.67 u/L | ALBUMIN [4]: 4.5 G/DL | ALKALINE PHOSPHATASE [4]: 245.67 u/L | ASPARTATE AMINOTRANSFERASE [4]: 109.33 u/L | BLOOD UREA NITROGEN [4]: 18 mg/dL | CARBON DIOXIDE [4]: 27 mmol/L | CHLORIDE [4]: 101.67 MEQ/L | CHOLESTEROL [4]: 74.33 mg/dL | CREATINE PHOSPHOKINASE [4]: 756 u/L | CREATININE [4]: 0.12 mg/dL | GLUCOSE [4]: 155.33 mg/dL | LACTATE DEHYDROGENASE [4]: 946.67 u/L | LIPASE [4]: 8.33 u/L | PHOSPHORUS [4]: 12.47 mg/dL | POTASSIUM [4]: 4.95 MEQ/L | SODIUM [4]: 144.83 MEQ/L | TOTAL BILIRUBIN [4]: 0.1 mg/dL | TOTAL PROTEIN [4]: 6.33 G/DL | URIC ACID [4]: 1.5 mg/dL
